Measurements as given in patent publication US4118424A, “Biodegradable insecticides” (priority 1976, dated 1978).
Values after ≈ are worked out from the molar mass of the structure shown.

What was measured:
[1] = tested on: Culex fatigans adults; assay: Insect toxicity, Culex fatigans adults; type: in vivo
[2] = tested on: Anopheles albimanus larvae; assay: Insect toxicity, Anopheles albimanus larvae; type: in vivo
[3] = tested on: Phormia regina; assay: Insect toxicity, Phormia regina; type: in vivo
[4] = tested on: Musca domestica (NAIDM strain); assay: Insect toxicity, Musca domestica NAIDM strain; type: in vivo; conditions: for LD50: Musca domestica, without PB; for Musca domestica NAIDM (w/PB) LD50: with PB
[5] = tested on: Culex fatigans larvae; assay: Insect toxicity, Culex fatigans larvae; type: in vivo; conditions: Culex quinquefasciatus
[6] = tested on: Anopheles albimanus adults; assay: Insect toxicity, Anopheles albimanus adults; type: in vivo
[7] = tested on: Musca domestica Rsp strain; assay: Insect toxicity, Musca domestica Rsp strain, DDT-resistant; type: in vivo; conditions: for LD50: Musca domestica, without PB; for Musca domestica Rsp strain w/PB LD50: with PB
[8] = tested on: insects (flies and mosquitoes); assay: Insecticidal activity, general statement; type: in vivo; conditions: versus ethoxychlor
Excerpt: Metabolic studies involving insects, mice, and fish and a model ecosystem (such as described in U.S. Pat. No. 3,787,505) and insecticidal activity studies generally involving flies and mosquitoes have shown that both the symmetrical and the asymmetrical compounds of the present invention are effective. Thus, the new compounds can be represented by the general formula: [drawing 3] where R1 is H or Cl and R2 is CH3 or Cl, X and X^1 are the same or different and each is selected from the group consisting of C1 to C3 alkyl groups and C1 to C4 alkoxy groups.

[9] = tested on: mice; assay: Mouse toxicity, LD50; type: in vivo; conditions: versus ethoxychlor
[10] = Mouse toxicity, LD50; type: in vivo, mice; conditions: in vivo
[11] = tested on: green sunfish (Lepomis cyanellus); assay: Green sunfish toxicity over a period of time; type: in vivo; conditions: initial concentration 0.1 ppm
Excerpt: The compounds of Example III, V, XI, XIV and XXI were further tested and compared with ethoxychlor to determine fish toxicities over a period of time. In these tests, green sunfish (Lepomis cyanellus) were subject to an initial concentration dosage of 0.1 ppm and the number of days that 100 percent mortalities occurred was observed.

[12] = tested on: Culex fatigans; assay: Persistence on plywood surfaces of test huts, Culex fatigans; type: in vivo; conditions: adult mosquitoes
Method: (§1) The persistence of some of the compounds of the present invention was evaluated and compared with that of ethoxychlor. In these tests, the compounds were applied to the plywood surfaces of test huts and the mortalities of adult mosquitoes contained in the huts were measured to determine the number of weeks that 50% mortality continued to occur.

[13] = tested on: Anopheles albimanus; assay: Persistence on plywood surfaces of test huts, Anopheles albimanus; type: in vivo; conditions: adult mosquitoes
Method: as §1

| SMILES | Culex fatigans adults-LC50 [1] [ug/cm^2] | LC50 [2] [µg/mL] | LD50 [3] [mg/kg] | LD50 [4] [mg/kg] | Musca domestica NAIDM (w/PB) LD50 [4] [µg/g] | LC50 [5] [µg/mL] | Anopheles albimanus adults LC50 [6] [ug/cm^2] | LD50 [7] [mg/kg] | Musca domestica Rsp strain w/PB LD50 [7] [µg/g] | insecticidal activity relative to ethoxychlor [8] | safety to mice relative to ethoxychlor [9] | LD50 [10] [mg/kg] | Number of days 100% mortality [11] [days] | Culex fatigans, P50 (number of weeks that at least 50% mortality occurred) [12] [weeks] | Anopheles albimanus, P50 (number of weeks that at least 50% mortality occurred) [13] [weeks] |
| --- | --- | --- | --- | --- | --- | --- | --- | --- | --- | --- | --- | --- | --- | --- | --- |
| CCCc1ccc(C(c2ccc(CCC)cc2)C(C)Cl)cc1 (stereo not drawn) [IX] | > 160 | 0.068 (≈ 0.216 µM) | > 250 | 55 | 45 | 0.145 (≈ 0.46 µM) | 17 | 120 | 90 | – | – | – | – | – | – |
| CCCc1ccc(C(c2ccc(C)cc2)C(C)Cl)cc1 (stereo not drawn) [VIII] | 12 | 0.18 (≈ 0.628 µM) | 97.5 | 65 | 29 | 0.18 (≈ 0.628 µM) | 7.2 | 155 | 85 | – | – | – | – | – | – |
| Cc1ccc(C(c2ccc(C)cc2)C(C)(Cl)Cl)cc1 [XVII] | 8.0 | 0.13 (≈ 0.443 µM) | 8 | 145 | 18 | 0.2 (≈ 0.682 µM) | 5 | 270 | 7.0 | – | – | – | – | – | – |
| CCOc1ccc(C(c2ccc(OCC)cc2)C(C)(C)Cl)cc1 [XXI] | > 160 | > 1 | > 250 | 115 | 12 | > 1 | > 160 | 180 | 25.5 | at least generally comparable to ethoxychlor | at least five times safer to mice than is ethoxychlor | ≥ 1000 | 0 | – | – |
| CCOc1ccc(C(c2ccc(C)cc2)C(C)C)cc1 (stereo not drawn) [XIV] | 5.0 | 0.275 (≈ 1.02 µM) | 35 | 70 | 18 | 0.052 (≈ 0.194 µM) | 5 | 150 | 31 | at least generally comparable to ethoxychlor | at least five times safer to mice than is ethoxychlor | ≥ 1000 | 0 | 4 | 6 |
| CCOc1ccc(C(c2ccc(C)cc2)C(C)Cl)cc1 (stereo not drawn) [Example III] | 10 | 0.09 (≈ 0.312 µM) | 6.75 | 39 | 10 | 0.08 (≈ 0.277 µM) | 1.1 | 95 | 14 | at least generally comparable to ethoxychlor | at least five times safer to mice than is ethoxychlor | ≥ 1000 | 0 | > 8 | > 6 |
| CCCOc1ccc(C(c2ccc(OCCC)cc2)C(C)C)cc1 [XIII] | > 160 | 0.25 (≈ 0.766 µM) | 200 | 100 | 21.5 | 0.3 (≈ 0.919 µM) | > 160 | 185 | – | – | – | – | – | – | – |
| CCOc1ccc(C(c2ccc(OC)cc2)C(C)C)cc1 (stereo not drawn) [Example X] | 16.5 | 0.17 (≈ 0.598 µM) | 28.5 | 65 | 12 | 0.13 (≈ 0.457 µM) | 6.3 | 110 | 17.5 | – | – | – | – | – | – |
| CCCOc1ccc(C(c2ccc(OCC)cc2)C(C)Cl)cc1 (stereo not drawn) [VI] | > 160 | 0.075 (≈ 0.225 µM) | 62.5 | 15.5 | 3.2 | 0.05 (≈ 0.15 µM) | 14.5 | 25 | 5.5 | – | – | – | – | – | – |
| CCOc1ccc(C(c2ccc(OCC)cc2)C(C)(Cl)Cl)cc1 [Example XIX] | > 160 | 0.041 (≈ 0.116 µM) | 24 | 17.5 | 7 | 0.094 (≈ 0.266 µM) | 49 | 90 | 23.5 | – | – | < 300 | – | 40 | > 20 |
